Assay [1] concerns the target IL-17A(FLAG-Tagged): IL-17RA(His-Tagged) (Homo sapiens, UniProt Q16552, K93Q). The assay is described as follows: IL-17A(FLAG-Tagged): IL-17RA(His-Tagged) Binding Disruption Eu-HTRF Assay. The conditions noted are these: disruption of IL-17A/IL-17RA binding; simple average if tested more than once. The text has this:
IL-17A(FLAG-Tagged): IL-17RA(His-Tagged) Binding Disruption Eu-HTRF Assay
An antibody directed against the FLAG tag of IL-17A (SEQ ID NO: 1) is labeled with the HTRF donor chromophore (Europium-cryptate). IL-17A is present as a dimer that is “locked into” this quaternary structure due to the formation of loop-spanning […] disulfide bridges. The construct of IL-17RA used in the assay excludes the […] portion of the receptor and is fused to a C-terminal 10×His tag (SEQ ID NO:2). An antibody directed against the His tag of the IL-17RA chimera is labeled with the HTRF acceptor chromophore (“D2”). The fluorescence-resonance energy transfer (FRET) depends on the vicinity of the donor chromophore to the acceptor, and interruption of the binding between the IL-17A and IL-17RA causes the reduction/loss of FRET. Therefore, this assay allows to evaluate the compound effect on the binding IL-17A and IL-17RA by monitoring the fluorescence intensity of donor vs acceptor. The assay is run as described below.
40 nL of 2-fold serial diluted compound solution for total 22 dilution points is added into each well of a 1536-well, white, low-volume, non-binding plate (Greiner #782904), then 2 μL of FLAG tagged IL-17A at 2× final concentration (2.5 nM) in solution of PBS+0.01% Triton-X100 is added to each well. The assay plate is briefly centrifuged then incubated for 1 h at rt. A mixed solution is prepared containing 2×5 nM 10HIS×IL-17RA, 2×2.5 nM Eu-anti-FLAG (CISBIO), 2×5 nM D2-anti-HIS (CISBIO) in PBS+0.01% Triton-X100+200 mM Potassium Fluoride (Sigma 60238) and 2 μL of mix is added to each well of the assay plate. The plate is briefly centrifuged then incubated for 2 h at rt. The HTRF intensities at the wavelength of donor (620 nm) and acceptor (665 nm) are measured using BMG Pherastar. The ratio between intensities at two wavelengths is calculated and plotted against the compound concentration and the data is fitted to a one-site competition model to yield IC50 of the compound.

The subject of assay [2] is IL-17A-induced G-CSF production in human normal keratinocytes (NHK). The assay is described as follows: NHK Assay: IL-17A-induced G-CSF production in human normal keratinocytes. It is filed as cell-based. The conditions noted are these: IL-17A 5 ng/mL, 24 h, 5% FBS, simple average if tested more than once. The procedure: IL-17A acts directly on keratinocytes through binding to dimeric receptor IL-17RA/RC and drives the production of a number of inflammatory mediators known to be elevated in psoriasis lesional tissue. IL-17A small molecule inhibitors that block the IL-17A to interact with IL-17R would inhibit the IL-17A signaling in its targeted cells such as keratinocytes. The compound functional activity is evaluated for its impact on IL-17A-induced G-CSF production in human normal keratinocytes (NHK).
Adult normal human keratinocytes are cultured in keratinocyte growth medium (Lonza) in a flask till reaching ˜ 90% confluence, then cells are transferred to a 384-well plate at density of 3000-4000 cell/well. Recombinant human IL-17A (Gibco PHC9174) is pre-incubated with titrated compound or DMSO for 1 h at rt then added to the cell culture plate. The final concentration of IL-17A is 5 ng/mL and DMSO is 0.2%, in the culture containing 5% FBS. Cells are cultured/treated for 24 h at 37° C. Supernatants are collected and G-CSF production is measured through HTRF technology using Human G-CSF Kit (CisBio). G-CSF concentration was extrapolated from the standard curve and IC50 is determined using GraphPad Prism. Cell viability is also evaluated using CellTiter-Glo kit (Promega) and effect of compound on cell viability is compared to DMSO control.

UniProt Q16552, sequence (Q16552 with tags, fused parts or gaps K93Q): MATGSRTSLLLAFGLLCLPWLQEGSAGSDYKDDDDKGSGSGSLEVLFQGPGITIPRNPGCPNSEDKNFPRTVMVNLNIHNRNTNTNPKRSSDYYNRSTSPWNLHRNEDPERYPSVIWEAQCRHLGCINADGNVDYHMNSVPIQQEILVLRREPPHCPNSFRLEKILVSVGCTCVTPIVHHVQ

As to `CC(CC(=O)N[C@@H](c1ccn2cc([C@@H](NC(=O)c3ncnn3CC3CC3)C3CCC(F)(F)CC3)nc2n1)C1CC1)C(F)(F)F` (single isomer, unassigned) [Example 20, N—((S)-(7-((R)-Cyclopropyl((R*)-4,4,4-trifluoro-3-methylbutanamido)methyl)imidazo[1,2-a]pyrimidin-2-yl)(4,4-difluorocyclohexyl)methyl)-1-(cyclopropylmethyl)-1H-1,2,4-triazole-5-carboxamide], the IC50 in assay [1] is 470 nM; in assay [2] it was 2800 nM.

In the case of `Cc1nonc1C(=O)N[C@H](c1cn2ccc([C@H](NC(=O)CC3CC(F)(F)C3)C3CC3)nc2n1)C1CCC(F)(F)CC1` [Example 21, N—((S)-(7-((R)-Cyclopropyl(2-(3,3-difluorocyclobutyl)acetamido)methyl)imidazo[1,2-a]pyrimidin-2-yl)(4,4-difluorocyclohexyl)methyl)-4-methyl-1,2,5-oxadiazole-3-carboxamide], the IC50 in assay [1] stood at 99 nM; in assay [2] (Homo sapiens, Keratinocyte), 590 nM.

As to `CC(C)n1ncnc1C(=O)N[C@H](c1cn2ccc([C@@H](NC(=O)CC3CC(F)(F)C3)C3CC3)nc2n1)C1CCC(F)(F)CC1` [Example 14, N—((S)-(7-((S)-Cyclopropyl(2-(3,3-difluorocyclobutyl)acetamido)methyl)imidazo[1,2-a]pyrimidin-2-yl)(4,4-difluorocyclohexyl)methyl)-1-isopropyl-1H-1,2,4-triazole-5-carboxamide], the IC50 in assay [1] is 17000 nM; in assay [2] (Homo sapiens, Keratinocyte) it was > 20000 nM.

As for `Cn1nccc1C(=O)N[C@H](c1cn2ccc(C(NC(=O)CCC(F)(F)F)C3CC3)nc2n1)C1CCC(F)(F)CC1` (single isomer, unassigned) [Example 44, N—((S)-(7-((S*)-Cyclopropyl(4,4,4-trifluorobutanamido)methyl)imidazo[1,2-a]pyrimidin-2-yl)(4,4-difluorocyclohexyl)methyl)-1-methyl-1H-pyrazole-5-carboxamide], the IC50 in assay [1] was 220 nM; in assay [2], 170 nM.

As to `CC(CC(=O)N[C@H](c1ccn2cc([C@@H](NC(=O)c3conc3C3CC3)C3CCC(F)(F)CC3)nc2n1)C1CC1)C(F)(F)F` (single isomer, unassigned) [Example 9, 3-Cyclopropyl-N—((S)-(7-((S)-cyclopropyl((S*)-4,4,4-trifluoro-3-methylbutanamido)methyl)imidazo[1,2-a]pyrimidin-2-yl)(4,4-difluorocyclohexyl)methyl)isoxazole-4-carboxamide], the IC50 turned out to be 1800 nM in assay [1] and 610 nM in assay [2].

Regarding `O=C(CC1CC(F)(F)C1)N[C@@H](c1ccn2cc([C@@H](NC(=O)[C@H]3C[C@@H]3C(F)(F)F)C3CCC(F)(F)CC3)nc2n1)C1CC1` (relative stereo) [Example 12, trans-(1R*,2R*)—N—((S)-(7-((R)-Cyclopropyl(2-(3,3-difluorocyclobutyl)acetamido)methyl)imidazo[1,2-a]pyrimidin-2-yl)(4,4-difluorocyclohexyl)methyl)-2-(trifluoromethyl)cyclopropane-1-carboxamide], the IC50 in assay [1] is 6000 nM; in assay [2] (Homo sapiens, Keratinocyte), > 20000 nM.

On to `O=C(CCC(F)(F)F)NC(c1ccn2cc([C@@H](NC(=O)c3cnnn3CCC(F)(F)F)C3CCC(F)(F)CC3)nc2n1)C1CC1` (single isomer, unassigned) [Example 2, N—((S)-(7-((S*)-Cyclopropyl(4,4,4-trifluorobutanamido)methyl)imidazo[1,2-a]pyrimidin-2-yl)(4,4-difluorocyclohexyl)methyl)-1-(3,3,3-trifluoropropyl)-1H-1,2,3-triazole-5-carboxamide], for which the IC50 in assay [1] was 3700 nM; in assay [2] it was 6200 nM.

For `O=C(CCC(F)(F)F)N[C@@H](c1ccn2cc([C@@H](NC(=O)c3ncnn3CC3CC3)C3CCC(F)(F)CC3)nc2n1)C1CC1` [Example 32, N—((S)-(7-((R)-Cyclopropyl(4,4,4-trifluorobutanamido)methyl)imidazo[1,2-a]pyrimidin-2-yl)(4,4-difluorocyclohexyl)methyl)-1-(cyclopropylmethyl)-1H-1,2,4-triazole-5-carboxamide], the IC50 in assay [1] came out at 170 nM; in assay [2] (Homo sapiens, Keratinocyte) it was 520 nM.

Consider `O=C(CC1CC(F)(F)C1)N[C@H](c1ccn2cc([C@@H](NC(=O)c3ccnc(CC(F)(F)F)c3)C3CCC(F)(F)CC3)nc2n1)C1CC1` [Example 28, N—((S)-(7-((S)-Cyclopropyl(2-(3,3-difluorocyclobutyl)acetamido)methyl)imidazo[1,2-a]pyrimidin-2-yl)(4,4-difluorocyclohexyl)methyl)-2-(2,2,2-trifluoroethyl)isonicotinamide], for which the IC50 in assay [1] amounted to 5400 nM; in assay [2] (Homo sapiens, Keratinocyte), 1200 nM.

Turning to `Cc1nonc1C(=O)N[C@H](c1cn2ccc([C@H](NC(=O)CC34CC(F)(C3)C4)C3CC3)nc2n1)C1CCC(F)(F)CC1` [Example 59, N—((S)-(7-((R)-Cyclopropyl(2-(3-fluorobicyclo[1.1.1]pentan-1-yl)acetamido)methyl)imidazo[1,2-a]pyrimidin-2-yl)(4,4-difluorocyclohexyl)methyl)-4-methyl-1,2,5-oxadiazole-3-carboxamide], the 50% inhibitory concentration (IC50) amounted to 390 nM in assay [1] and 990 nM in assay [2] (Homo sapiens, Keratinocyte).

Turning to `O=C(CC1CC1(F)F)N[C@@H](c1ccn2cc([C@@H](NC(=O)c3ncnn3CC3CC3)C3CCC(F)(F)CC3)nc2n1)C1CC1` (single isomer, unassigned) [Example 56, N—((S)-(7-((R)-Cyclopropyl(2-((R*)-2,2-difluorocyclopropyl)acetamido)methyl)imidazo[1,2-a]pyrimidin-2-yl)(4,4-difluorocyclohexyl)methyl)-1-(cyclopropylmethyl)-1H-1,2,4-triazole-5-carboxamide], the IC50 was found to be 730 nM in assay [1] and 1800 nM in assay [2].

On to `CC(C)n1ncnc1C(=O)N[C@H](c1cn2ccc([C@H](NC(=O)CC3CC(F)(F)C3)C3CC3)nc2n1)C1CCC(F)(F)CC1` [Example 13, N—((S)-(7-((R)-Cyclopropyl(2-(3,3-difluorocyclobutyl)acetamido)methyl)imidazo[1,2-a]pyrimidin-2-yl)(4,4-difluorocyclohexyl)methyl)-1-isopropyl-1H-1,2,4-triazole-5-carboxamide], for which the IC50 in assay [1] amounted to 340 nM; in assay [2] (Homo sapiens, Keratinocyte) it was 500 nM.

For `Cc1nonc1C(=O)N[C@H](c1cn2ccc([C@H](NC(=O)C[C@H](C)C(F)F)C3CC3)nc2n1)C1CCC(F)(F)CC1` [Example 60, N—((S)-(7-((R)-Cyclopropyl((S)-4,4-difluoro-3-methylbutanamido)methyl)imidazo[1,2-a]pyrimidin-2-yl)(4,4-difluorocyclohexyl)methyl)-4-methyl-1,2,5-oxadiazole-3-carboxamide], the IC50 in assay [1] was found to be 380 nM; in assay [2] (Homo sapiens, Keratinocyte), 760 nM.

Take `O=C(CC1CC(F)(F)C1)N[C@@H](c1ccn2cc([C@@H](NC(=O)c3nonc3C3CC3)C3CCC(F)(F)CC3)nc2n1)C1CC1` [Example 62, 4-Cyclopropyl-N—((S)-(7-((R)-cyclopropyl(2-(3,3-difluorocyclobutyl)acetamido)methyl)imidazo[1,2-a]pyrimidin-2-yl)(4,4-difluorocyclohexyl)methyl)-1,2,5-oxadiazole-3-carboxamide]: the IC50 is 91 nM in assay [1] and 120 nM in assay [2] (Homo sapiens, Keratinocyte).

Source of the values: patent publication US12559496B2, “Imidazopyrimidines as modulators of IL-17” (Janssen Pharmaceutica NV, priority 2020, dated 2026).
